According to patent US7923465B2, “Cannabinoid receptor ligands, pharmaceutical compositions containing them, and process for their preparation” (priority 2005, dated 2011):
Like-named read-outs stand apart in the source and are kept apart here.

Experiments:
CB1 [1] = biological target: T1, CB1 (Rattus norvegicus, UniProt P20272); assay: GTPγS binding assay, CB1 functional assay in rat cerebellar membrane (Protocol VIII); assay type: biochemical; set-up: 10 μg rat cerebellum membrane; from tissue; host or cells: rat cerebellum membrane, prepared in-house; conditions: for activation at 1 µM / Per Se % Stimulation: tested at 1 uM; for inhibition at 1 µM / % Inhibition of WIN-55212-2 induced stimulation: tested at 1 uM in presence of 1 μM WIN 55,212-2
Procedure: VIII. Protocol for GTPγS Binding Assay (CB1 Functional Assay in Rat Cerebellar Membrane)
In this GTPγS binding assay, total, basal and nonspecific binding were determined. See Griffin G., Atkinson P. J., Showalter V. M., Martin B. R. and Abood M. E., “Evaluation of cannabinoid receptor agonists and antagonists using the Guanosine-5′-O-(3-(^35S)thio)-triphosphate binding assay in rat cerebellar membranes,” J Pharmacol Exp Ther 285: 553-560, 1998. Three wells for total binding, three wells for basal binding, and three wells for nonspecific binding at 0.2 nM concentration of radioligand were used. Basal binding was defined by 50 μM GDP (Guanosine diphosphate) and non-specific binding was defined by 10 μM unlabeled GTPγS. 10 μg rat cerebellum membrane, 50 μM of GDP, WIN-55212-2 or test compound (1 μM or 300 nM), 10 μM unlabeled GTPγs, and 0.2 nM of [^35S]GTPγS were added into a 96 well plate and the final volume of the reaction mixture was made with GTPγS buffer (50 mM Tris, 3 mM anhydrous MgCl2, 0.2 mM EGTA and 100 mM NaCl pH 7.4) to 200 μl. The plates were incubated at 30° C. for 1 hour. Then the reaction was stopped by filtration using a Whatman GF/B-96 microfilter plate. Three washings were given using Tris-HCl. The radioactivity bound to the brain membrane was retained on the filter disks to which scintillation fluid was added (Microscint PS). Then plates were read for radioactive counts using a Beta Liquid Scintillation Counter (Packard Instruments, Ill., USA).
The rat cerebellar brain membrane was prepared as follow: • 1. Sacrifice the rat and take out the whole brain and separate cerebellum as fast as possible and keep it on ice. • 2. Take the weight of the cerebellum and homogenize in 30 ml of homogenizing buffer (50 mM Tris-HCL containing 1 mM EDTA and 5% sucrose, pH 7.5) using homogenizer in cold condition. • 3. Centrifuge the homogenized cerebellum at 18000 rpm (38000 g) for 15 min at 4° C. • 4. Resuspend the pellet in 5 ml 50 mM Tris-HCL containing 1 mM EDTA and keep it on ice for 30 min. • 5. Pass the membrane through insulin syringe to ensure uniform suspension. • 6. Centrifuge the membrane at 18000 rpm at 4° C. for 20 min. • 7. Reconstitute the pellet in 3 ml of GTPγS buffer and estimate the protein by BCA assay and store the membrane in aliquots of 1000 μg of protein. CB1 Agonist and Antagonist Activity Screening Assay
The test compounds were screened at a final concentration of 1 μM or 300 nM in the absence and presence of 1 μM of WIN 55, 212-2 in the same manner as described in the GTPγS binding assay.
An agonist will stimulate the GTPγS binding over the basal.
An inverse agonist will decrease the basal GTPγS binding and/or produce more than 100% inhibition of the agonist (WIN-55212-2) induced stimulation.
The percent stimulation of GTPγS binding by each test compound at 1 μM or 300 nM concentration in the absence and presence of 1 μM WIN 55, 212-2 was calculated by comparing it with basal specific bound (Basal binding—Non Specific binding) values.

CB1 [2] = biological target: T1, CB1; assay: Rat CB1 receptor binding using brain membrane, [3H]SR141716A displacement (Protocol I); set-up: CB1 receptor present in a rat brain membrane preparation; from tissue; host or cells: rat brain membrane; inhibition: dose or concentration left out as unconfirmed; conditions: for inhibition: 1 h
hCB2 = hCB2 (Homo sapiens, UniProt P34972); assay: In vitro binding assay using hCB2-CHO membranes, [3H]-CP-55,940 displacement (Protocol IV); set-up: expressed in transfected cells; host or cells: CHO (hCB2-CHO, generated in-house); conditions: hCB2-CHO membranes, [3H]-CP-55,940 displacement
How it was run: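 Displacement of [3H]-CP-55,940 (0.75 nM) from membranes of CHO cells expressing human CB2 (25-50 μg) was measured in Tris-BSA buffer pH 7.4 with 5 mM MgCl2, 1 mM EDTA, 0.1% BSA, 1 h at 30 °C. Test compounds were at 300 nM final; nonspecific binding defined with 0.5 μM CP-55,940. Values are % displacement of specific binding.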

[3] = 1 h, GTPγS binding over basal, rat cerebellar membrane, read-out: Per Se % Stimulation
[4] = GTPγS binding, read-out: % Inhibition of WIN-55212-2 induced stimulation
[5] = rat brain membrane, [3H]SR141716A displacement, read-out: % Displacement Protocol I
[6] = GTPγS binding over basal, rat cerebellar membrane
[7] = rat brain membrane, [3H]SR141716A displacement
[8] = read-out: % Displacement Protocol I, rat brain membrane, [3H]SR141716A displacement

T1 sequence (P20272 whole entry): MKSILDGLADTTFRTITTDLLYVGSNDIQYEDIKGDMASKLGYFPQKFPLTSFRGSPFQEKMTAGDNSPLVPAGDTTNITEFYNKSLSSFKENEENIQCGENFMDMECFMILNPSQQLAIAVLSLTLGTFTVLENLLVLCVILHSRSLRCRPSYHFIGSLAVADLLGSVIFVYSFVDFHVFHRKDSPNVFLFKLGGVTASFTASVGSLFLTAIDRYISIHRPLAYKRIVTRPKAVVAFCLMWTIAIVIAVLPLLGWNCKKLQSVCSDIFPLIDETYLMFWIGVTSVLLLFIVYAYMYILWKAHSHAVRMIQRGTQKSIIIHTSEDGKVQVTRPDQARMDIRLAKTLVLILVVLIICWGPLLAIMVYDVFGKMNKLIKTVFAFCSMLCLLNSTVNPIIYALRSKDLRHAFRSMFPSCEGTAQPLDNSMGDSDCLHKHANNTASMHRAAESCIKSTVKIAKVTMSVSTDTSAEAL
hCB2, sequence (P34972 whole entry): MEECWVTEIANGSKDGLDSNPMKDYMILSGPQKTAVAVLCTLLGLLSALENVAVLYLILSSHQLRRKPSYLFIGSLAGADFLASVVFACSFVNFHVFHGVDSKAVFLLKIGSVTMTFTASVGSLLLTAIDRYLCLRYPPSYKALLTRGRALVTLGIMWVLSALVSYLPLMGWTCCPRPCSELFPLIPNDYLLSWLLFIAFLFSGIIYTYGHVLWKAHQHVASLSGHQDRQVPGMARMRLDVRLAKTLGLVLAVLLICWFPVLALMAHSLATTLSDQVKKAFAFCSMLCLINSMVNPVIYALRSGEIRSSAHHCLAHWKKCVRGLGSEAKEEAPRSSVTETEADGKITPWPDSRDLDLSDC

Row | Structure (SMILES) | melting point [°C] | activation at 1 µM (CB1 [1]; [3]) [%] | inhibition at 1 µM (CB1 [1]; [4]) [%] | inhibition (CB1 [2]; [5]) [%] | other results
1 | CN(NC(=O)c1nn(-c2ccc(Cl)cc2)c2c1C1CC3CC(C1)CC2C3)C1CCCCC1 [Example 107, N(7)-(N-cyclohexyl-N-methylamino)-5-(4-chlorophenyl)-5,6-diazatetracyclo[7.3.1.1^3,11.0^4,8]tetradeca-4(8),6-diene-7-carboxamide] | 219 | 4 | 71.5 | 97.4 | –
2 | O=C(NCc1ccccc1Cl)c1nn(-c2ccc(Cl)cc2)c2c1C1CC3CC(C1)CC2C3 [Example 111, N(7)-(2-Chlorobenzyl)-5-(4-chlorophenyl)-5,6-diazatetracyclo[7.3.1.1^3,11.0^4,8]tetradeca-4(8),6-diene-7-carboxamide] | 162 to 164 | 6.1 | 101 | 111 | –
3 | O=C(NNc1ccc(Cl)cc1Cl)c1nn(-c2ccc(Cl)cc2)c2c1C1CC3CC(C1)CC2C3 [Example 126, N(7)-(2,4-Dichlorophenylamino)-5-(4-chlorophenyl)-5,6-diazatetracyclo[7.3.1.1^3,11.0^4,8]tetradeca-4(8),6-diene-7-carboxamide] | – | -7.9 | 104 | 118 | –
4 | CN(NC(=O)c1nn(-c2ccc(Cl)cc2)c2c1C1CC3CC(C1)CC2C3)c1ccc(Cl)cc1Cl [Example 127] | – | – | – | – | Per Se % Stimulation (CB1 [1]; [6]): 18.0%; % Inhibition of WIN-55212-2 induced stimulation (CB1 [1]; GTPγS binding): 100.2%; % Displacement Protocol I (CB1 [2]; [7]): 85.3%
5 | O=C(NN(c1ccccc1)c1ccccc1)c1nn(-c2ccc(Cl)cc2)c2c1C1CC3CC(C1)CC2C3 [Example 137, N(7)-(N′,N′-Diphenylamino)-5-(4-chlorophenyl)-5,6-diazatetracyclo[7.3.1.1^3,11.0^4,8]tetradeca-4(8),6-diene-7-carboxamide] | 214 | 13 | 76 | – | inhibition (CB1 [2]; [8]): 76.7%
6 | O=C(NCc1ccccc1)c1nn(-c2ccc(Cl)cc2)c2c1C1CC3CC(C1)CC2C3 [Example 139, N(7)-Benzyl-5-(4′-chlorophenyl)-5,6-diazatetracyclo[7.3.1.1^3,11.0^4,8]tetradeca-4(8)-6-diene-7-carboxamide] | – | – | – | – | Per Se % Stimulation (CB1 [1]; [6]): −8.5%; % Inhibition of WIN-55212-2 induced stimulation (CB1 [1]; GTPγS binding): 109.1%; % Displacement Protocol I (CB1 [2]; [7]): 62.4%
7 | O=C(NN1CCCCC1)c1nn(-c2ccc(F)cc2F)c2c1C1CC3CC(C1)CC2C3 [Example 143, N(7)-Piperidino-5-(2,4-difluorophenyl)-5,6-diazatetracyclo[7.3.1.1^3,11.0^4,8]tetradeca-4(8),6-diene-7-carboxamide] | 215 | 43.1 | 45 | 102 | –
8 | O=C(NNc1ccccc1)c1nn(-c2ccc(Cl)cc2Cl)c2c1C1CC3CC(C1)CC2C3 [Example 173, N(7)-Phenylamino-5-(2,4-dichlorophenyl)-5,6-diazatetracyclo[7.3.1.1^3,11.0^4,8]tetradeca-4(8),6-diene-7-carboxamide] | 162 to 163 | 1.3 | 99.5 | 67.1 | –
9 | O=C(NN(c1ccccc1)c1ccccc1)c1nn(-c2ccc(Cl)cc2Cl)c2c1C1CC3CC(C1)CC2C3 [Example 177, N(7)-(N′,N′-Diphenylimino)-5-(2,4-dichlorophenyl)-5,6-diazatetracyclo[7.3.1.1^3,11.0^4,8]tetradeca-4(8),6-diene-7-carboxamide] | – | – | – | – | Per Se % Stimulation (CB1 [1]; [6]): 9.7%; % Inhibition of WIN-55212-2 induced stimulation (CB1 [1]; GTPγS binding): 109.1%; % Displacement Protocol I (CB1 [2]; [7]): 75.6%; % Displacement Protocol IV (hCB2): 15.26%
10 | O=C(NN1CCCCC1)c1nn(-c2ccc(Cl)cc2Cl)c2c1C1CC3CC(C1)CC2C3 [Example 180, N(7)-piperidino-5-(2′,4′-dichlorophenyl)-5,6-diazatetracyclo[7.3.1.1^3,11.0^4,8]tetradeca-4(8),6-diene-7-carboxamide] | – | 10 | 87.9 | 40.6 | inhibition at 0.3 µM (hCB2; 1 h, read-out: % Displacement Protocol IV): 13.2%
11 | O=C(NCc1ccccc1Br)c1nn(-c2ccc(Cl)cc2)c2c1C1CCC2C1 (centres unmarked) [Example 224, N(3)-(2-Bromobenzyl)-1-(4-chlorophenyl)-4,5,6,7-tetrahydro-1H-4,7-methano-indazole-3-carboxamide] | 141 to 142 | 5 | 78.1 | – | inhibition (CB1 [2]; [8]): 81.6%
12 | O=C(NNc1ccc(Cl)cc1Cl)c1n[nH]c2c1C1(c3ccc(Cl)cc3)CCC2C1 (centres unmarked) [Example 230, N(3)-[(2,4-Dichlorophenyl)amino]-4-(4-chlorophenyl)-4,5,6,7-tetrahydro-1H-4,7-methano-indazole-3-carboxamide] | – | 42.4 | 99.4 | 87.2 | –
13 | O=C(NC1CCCCC1)c1nn(-c2ccc(Cl)cc2Cl)c2c1C1CCC2C1 (centres unmarked) [Example 237, N(3)-Cyclohexyl-1-(2,4-dichlorophenyl)-4,5,6,7-tetrahydro-1H-4,7-methano-indazole-3-carboxamide] | – | 7.1 | 74.7 | 65.6 | –
14 | O=C(NC12CC3CC(CC(C3)C1)C2)c1nn(-c2ccc(Cl)cc2Cl)c2c1C1CCC2C1 (centres unmarked) [Example 242, N(3)-(Adamantan-1yl)-1-(2,4-dichlorophenyl)-4,5,6,7-tetrahydro-1H-4,7-methano-indazole-3-carboxamide] | 201 to 204 | – | – | – | activation at 0.3 µM (CB1 [1]; 1 h, GTPγS binding over basal, rat cerebellar membrane, tested at 300 nM, read-out: Per Se % Stimulation): 33.4%; inhibition at 0.3 µM (CB1 [1]; GTPγS binding, tested at 300 nM in presence of 1 μM WIN 55,212-2, read-out: % Inhibition of WIN-55212-2 induced stimulation): 22.9%
15 | O=C(NNc1ccccc1F)c1nn(-c2ccc(Cl)cc2Cl)c2c1C1CCC2C1 (centres unmarked) [Example 264, N(3)-[(2-Fluorophenyl)amino]-1-(2,4-dichlorophenyl)-4,5,6,7-tetrahydro-1H-4,7-methano-indazole-3-carboxamide] | – | -0.1 | 94.5 | 85.6 | –
16 | O=C(NCc1ccccc1)c1nn(-c2ccc(Cl)cc2Cl)c2c1C1CCC2C1 (centres unmarked) [Example 269, N(5)-benzyl-3-(2′,4′-dichlorophenyl)-3,4-diazatricyclo[5.2.1.0^2,6]deca-2(6),4-diene-5-carboxamide] | – | 6 | 91.4 | 47.7 | –
17 | Cl.O=C(NN1CCCCC1)c1nn(-c2ccc(Cl)cc2Cl)c2c1C1CCC2c2ccccc21 (centres unmarked) [Example 503, N(12)-Piperidino-10-(2,4-dichlorophenyl)-10,11-diazatetracyclo[6.5.2.0^2,7.0^9,13]pentadeca-2,4,6,9(13),11-pentaene-12-carboxamide hydrochloride] | – | – | – | – | Per Se % Stimulation (CB1 [1]; [6]): 1.5%; % Inhibition of WIN-55212-2 induced stimulation (CB1 [1]; GTPγS binding): 92.0%; inhibition (CB1 [2]; [8]): 81.2%
